The record followed here is US12674139B2, “Serum-free medium not containing albumin and suited for culturing human hematopoietic stem cells, and albumin-free culturing method” (The University of Tokyo, priority 2019, dated 2026).

Non-standard residues stand in square brackets, D forms with d. No end group written: not given here. pY = N[C@@H](Cc1ccc(OP(=O)(O)O)cc1)C(=O)O

The test system of assay [1] is human hematopoietic stem cells (CD34+CD38− cells). The assay can be described thus: Proliferation of human hematopoietic stem cells in albumin-free serum-free PVA medium. The class given is cell-based. The conditions noted are these: no albumin. On the procedure:
In this example, an assay was performed in which mouse hematopoietic stem cells (KSL cells) and human hematopoietic stem cells (CD34^+CD38^− cells) were allowed to proliferate in a culture medium not comprising albumin. The culture medium was a serum-free medium comprising polyvinyl alcohol (PVA) and not comprising albumin, as described in Wilkinson et al., Nature, 571:117-121, 2019.
Specifically, the culture medium used for culture of mouse hematopoietic stem cells was an F12 medium comprising 1% insulin-transferrin-selenium-ethanolamine (ITSX), 10 mM HEPES, 1% penicillin-streptomycin-glutamine, 100 ng/mL mouse thrombopoietin (mTPO), and 10 ng/mL mouse stem cell factor (mSCF). The medium comprised PVA at the final concentration of 0.1%. The culture medium used for culture of human hematopoietic stem cells was an IMDM medium comprising 1% insulin-transferrin-selenium-ethanolamine (ITSX), 25 mM HEPES, 1% penicillin-streptomycin-glutamine, 100 ng/mL human thrombopoietin (hTPO), and 10 ng/mL human stem cell factor (hSCF). The medium comprised PVA at the final concentration of 0.1%.
Unless otherwise specified, all media used in the following examples were an IMDM medium comprising 1% insulin-transferrin-selenium-ethanolamine (ITSX), 25 mM HEPES, 1% penicillin-streptomycin-glutamine, and PVA (hereinafter, also referred to as “common medium”). Therefore, hereinafter, description of the medium will be focused on components added to the common medium. For example, given that the above-mentioned medium comprises TPO and SCF in addition to the common medium, it is to be referred to as a TPO+SCF medium for the purpose of convenience. […]
Accordingly, human hematopoietic stem cells were cultured in a culture medium comprising 0.3 μM AKTa (name of distributer, Sigma-Aldrich; product number 123871) or 20 μM PI3Ka. Cells were counted after 3 days, 5 days, and 7 days of culture, and the ratios of the number of cells at each time point to the number of cells on the first day of culture, which was standardized as 1, were obtained. […]

For assay [2], the system named is human CD34+ cells. The assay can be described thus: Culture of human bone marrow or umbilical cord blood CD34+ cells in PVA medium, proliferation rate by cell count and flow cytometry. The conditions noted are these: for proliferation rate of total cells and CD34+ cells relative to start of culture: neither SCF nor TPO, 20 μM PI3Ka, 0.1 μM TPOago or both; for ratio of number of cells at day 7 relative to first day of culture: TPO replaced with TPO receptor agonist. A general note: A flow cytometer gives signals particle by particle.
Text: The cells were dispensed to a 24-well plate at 0.2 to 1.0×10^5 cells per well, TPO was removed from a culture medium for human hematopoietic stem cells and replaced with any of the above-mentioned TPO receptor agonists (hereinafter, may be referred to as “TPOago”) to perform the experiment. The ratio of the number of cells at day 7 of culture relative to the first day of culture was obtained.
Subsequently, whether or not SCF and TPO can be replaced with PI3Ka and a TPO receptor agonist in the absence of albumin and in the presence of PVA was examined. In the following example, butyzamide was used as a TPO receptor agonist. […] Seven days later, the number of total cells was obtained, and the number of CD34+ cells was obtained by flow cytometry. Then, the proliferation rate compared with the start of culture was obtained.
Further, subsequently, a culture experiment of human hematopoietic stem cells was performed in a culture medium comprising neither SCF nor TPO to which 20 μM PI3Ka or 0.1 μM TPOago or both were added.
Further, subsequently, which cell population easily proliferated in a medium in which SCF and TPO were replaced with PI3Ka and TPOago was examined. CD34^+ cells isolated from given fresh umbilical cord blood using microbeads as described above were used in the culture experiment.
The cells were dispensed to a 24-well plate at 0.2×10^5 to 1.0×10^5 cells per well, and CD34^+ cells were cultured in the prepared media.

Assay [3] concerns human CD34+ cells. The assay can be described thus: Colony assay in MethoCult H4415 medium with Giemsa staining. The class given is cell-based. The conditions noted are these: cells after 7 days culture; 20 μM PI3Ka + 0.1 μM butyzamide versus PI3Ka + TPO. The source says:
Subsequently, whether or not SCF and TPO can be replaced with PI3Ka and a TPO receptor agonist in the absence of albumin and in the presence of PVA was examined. In the following example, butyzamide was used as a TPO receptor agonist. Purchased human bone marrow CD34+ cells (distributor name, Lonza; product number 2C-101) or CD34+ cells isolated from given fresh umbilical cord blood using microbeads as described above were used in the culture experiment. […] Two weeks later, colonies were picked up, cytospin specimens were prepared, Giemsa staining was performed, and then the types of colonies were determined under a microscope. The number of GEmM colonies per 50 CD34+ cells was counted, and the percentage increase in the number of colonies compared with before culture was obtained.
Further, 100 CD34+ cells obtained in the culture at […] after the start of culture were seeded each on a MethoCult™ H4415 medium, and a colony assay was performed. […] Then, after Giemsa staining was performed for the specimens, the types of colonies were determined under a microscope.

Another assay relates to Mpl32D cells. The assay can be described thus: Culture with TPO receptor agonists as TPO replacements, with albumin or PVA. The class given is cell-based, human. The conditions noted are these: 0.1 μM butyzamide, 3 μg/mL eltrombopag, 3 μM avatrombopag. The procedure: Subsequently, whether or not TPO can be replaced with a TPO receptor agonist in culture of human hematopoietic stem cells was examined. Butyzamide, eltrombopag, and avatrombopag are known as TPO receptor agonists. Human hematopoietic stem cells were cultured in the presence of 0.1% recombinant human serum albumin (Albumin Biosciences) or in the presence of PVA in the above-mentioned culture medium having a composition from which TPO was removed and to which 0.1 μM butyzamide, 3 μg/mL eltrombopag, or 3 μM avatrombopag was added. In this experiment, Mpl32D cells were used as human hematopoietic stem cells.

[4] abbreviates: day 7, 20 μM PI3Ka + TPO 100 ng/mL.
Where [5] appears, read: 0.1% recombinant human serum albumin, no TPO.

With “PI3Ka: peptide of amino acid sequence RQIKIWFQNRRMKWKKSDGGYMDMS in which Y is phosphorylated; Tocris product number 1983 (RQIKIWFQNRRMKWKKSDGG[pY]MDMS)”, in assay [1] (3, 5, 7 days, SCF 10 ng/mL + TPO 100 ng/mL, 0.3 μM AKTa or 20 μM PI3Ka), the “ratio of number of cells to first day of culture” value is listed as “clearly proliferated”. In addition, in assay [1] (setting [4]), the “number of CD34+ cells, with SCF versus without SCF” value is “no significant difference” and the “number of total cells, with SCF versus without SCF” value was “no significant difference”. Further, the “proliferation rate of total cells and CD34+ cells relative to start of culture” value in the assay with human CD34+ cells [2] (day 7, PVA, no albumin) is listed as “increases of cells were not observed”.

In the case of `CCCOC(c1cccc(-c2csc(NC(=O)c3cc(Cl)c(C=C(C)C(=O)O)c(Cl)c3)n2)c1OC)C(C)(C)C` (centres unmarked) [butyzamide, 3-[4-[[[4-[2-methoxy-3-(1-tert-butyl-2-oxapentan-1-yl)phenyl]thiazol-2-yl]amino]carbonyl]-2,6-dichlorophenyl]-2-methylpropenoic acid], in the assay on human CD34+ cells [3], the “GEmM colony forming ability (number of GEmM colonies per 50 CD34+ cells)” value is reported as “could completely replace TPO”. The “ratio of number of cells at day 7 relative to first day of culture” value with human CD34+ cells [2] (PVA, no albumin) is on record as “significantly proliferated”. In addition, the “proliferation rate of total cells and CD34+ cells compared with start of culture” value with human CD34+ cells [2] (day 7, 20 μM PI3Ka + 0.1 μM butyzamide versus 20 μM PI3Ka + TPO 100, PVA, no albumin, no SCF) is reported as “could completely replace TPO”. Moreover, in the assay on human CD34+ cells [2] (day 7, PVA, no albumin), the “proliferation rate of total cells and CD34+ cells relative to start of culture” value was “increases of cells were not observed”. Moreover, the “proliferation (change with time in number of cells)” value in the assay on Mpl32D cells (setting [5]) is reported as “could support proliferation”; in the assay on Mpl32D cells (PVA, no albumin), “marked proliferative effect”.

`CC(C)n1cnc2c(NCCc3ccc(O)cc3)nc(-c3csc4ccccc34)nc21` [SR-1]: the “proliferation rate of total cells relative to before start of culture” value in the assay with human CD34+ cells [2] (day 14, added to 20 μM PI3Ka + 0.1 μM TPOago, SR-1 500 nM, UM171 35 nM) is “killed cells”.

As for `O=C(Nc1nc(-c2cc(Cl)cs2)c(N2CCN(C3CCCCC3)CC2)s1)c1cnc(N2CCC(C(=O)O)CC2)c(Cl)c1` [avatrombopag], in the assay with human CD34+ cells [2] (PVA, no albumin), the “ratio of number of cells at day 7 relative to first day of culture” value was “Death of hematopoietic stem cells occurred”. Besides, the “proliferation (change with time in number of cells)” value in the assay with Mpl32D cells (setting [5]) was “could support proliferation”; in the assay with Mpl32D cells (PVA, no albumin) it was “low effect”.
